Tests used:
[1] = tested on: photosystem II; test: PSII oxygen evolution / electron transfer activity of treated Crofton weed leaves; format: biochemical; conditions: 50 μg/mL, strong light 12 hours
Description: (§1) Compounds 10-57 were dissolved in small amount of methanol. The solutions were then diluted with distilled water to a concentration of 50 μg/mL. A mixture of methanol and water in the same ratio as the sample solution was also prepared and used as control in the experiment. The healthy leaves of Crofton weed were washed in water for 30 minutes and then rinsed with distilled water. The clean and tissue dried leaves were placed in petri dish with the back-side of the leaves facing up. Wet filter paper was also placed in the in petri dish for moisture control. Water, methanol and chemical solutions of the analogues were applied to the back-side of each leaf. Test sample was then placed in vacuum chamber at 25° C. for 15 min followed by exposure to the strong light (400 μM m^−2 s^−1) for 12 hours. The leaf sample went through a series of test, and the Hill reaction rate, the electron transfer activity and fluorescence of chlorophyll were measured. Four leaves were used for each treatment and each test was repeated three times.

[2] = tested on: fluorescence of chlorophyll; test: Fluorescence of chlorophyll of treated Crofton weed leaves; format: biochemical; conditions: 50 μg/mL, strong light 12 hours
Description: as §1

[3] = tested on: Crofton weed; test: Needle puncture test on Crofton weed with washes recovered from compound-treated soil; format: in vivo; conditions: after soil treatment (3 hours)
Description: Compounds 1, 2, 3, and 40 were dissolved in small amount of methanol and diluted with distilled water to concentration of 50 μg/mL. The solution was sprayed to the soil sample until the soil was wet but not overflows. After standing at room temperature for 3 hours, the soil sample was washed with water and methanol. The wash solution was collected and concentrated. Such process was repeated three times. The concentrated solutions were used for herbicidal activity test using the method of needle puncture on Crofton weed. Methanol water solution and pure water were used as control. The experiment for every sample was repeated six times. The spot diameters were measured with vernier caliper after the plant was kept under natural light at 25° C. for 24 hours (Table 11).

[4] = tested on: Crofton weed; test: Needle puncture pathogenic test on slightly wounded leaf of Crofton weed; format: in vivo; conditions: Crofton weed leaf; for Avg. diameter of the spot after 24 h / Time of disease spot to occur: analogs with formula (I) and (II); for Time of Disease spot / Average diameter of spot after 24 h: 50 μg/mL, 25° C., natural light
Description: 3-acetyl-5-sec-butyl-4-hydroxy-3-pyrrolin-2-one analogs were dissolved in a small amount of methanol and diluted with water to a concentration of 5-100 μg/g. A pathogenic test was conducted by placing the toxic liquid on the slightly wounded leaf of Crofton weed with a needle. The test has shown that the pathogenic capability of 3-acetyl-5-sec-butyl-4-hydroxy-3-pyrrolin-2-one analogs with respect to Crofton weed increases with the increase of concentration. The spot diameter caused on the leaf of Crofton weed after 24 hours was 2 mm at 50 μg/g.
3-acetyl-5-sec-butyl-4-hydroxy-3-pyrrolin-2-one analogue (Table 3, compounds 10-57) was dissolved in small amount of methanol. The solution was then diluted with distilled water to a concentration of 50 μg/mL. Methanol solution with same concentration and pure distilled water were used as control of the experiment. A pathogenic test was conducted by placing the toxic liquid on the slightly wounded leaf of Crofton weed with a needle. The experiment was carried out at 25° C. under the natural light and each test was repeated 6 times. It was measure the diameter of the spot after 24 h. […] The size of the side chain also has an effect on their activity.
Fourteen salts of 3-acetyl-5-sec-butyl-4-hydroxy-3-pyrrolin-2-one analogs were dissolved in small amount of methanol and diluted with distilled water to a concentration of 50 μg/mL. Methanol/water mixture was also prepared and used as control. Needle puncture method was used for the test on the small pieces of Crofton weed. Each treatment was repeated six times or more. The test samples were kept under natural light at 25° C. for 24 hours. The diameters of damaged spot of the plant leaves were measured by vernier caliper.

[5] = tested on: Crofton weed; test: Spray on leaves and stems of three-leaf-stage Crofton weed seedlings grown in pots in a greenhouse; format: in vivo; parameters: key: 4: Plant completely dead; 3: Two thirds of the plant stems and leaves dried out; 2: Half of the plant stems and leaves dried out; 1: One third of the plant stems and leaves dried out; 0: No damage at all; conditions: 50 μg/mL spray, assessed two days later
Description: Compounds 1, 2, 3, and 40 were separately dissolved in a small amount of methanol. The solutions were then diluted with distilled water to a concentration of 50 μg/mL. A mixture of methanol and water in the same ratio as the sample solution was also prepared and used as control in the experiment. The solutions were sprayed on leaves and stems of three-leaf-stage Crofton weed seedlings. All the plants were grown in pot in a greenhouse. The leaves were properly wet by the solutions for consistency and the treatment was repeated 3 times. The measurement of the plant damage was calculated by the formula: Damage Index=Σ(damage level×number of plants)×100/4/number of plants in each treatment.

[6] = tested on: Hill reaction; test: Hill reaction activity of treated Crofton weed leaves; format: biochemical; conditions: 50 μg/mL, strong light 12 hours
Description: as §1

Row | Structure (SMILES) | PSII Activity of oxygen evolution [1] | Fv/Fm [2] | Average diameter of the spot after 24 h, H2O wash [3] | Average diameter of the spot after 24 h, Methanol wash [3] | Avg. diameter of the spot after 24 h [4] | Time of disease spot to occur [4] | Damage level [5] | Activity of Hill Reaction [6] | Time of Disease spot [4] | Average diameter of spot after 24 h [4]
1 | CCC(C)C1NC(=O)C=C1O (stereo not drawn) [Compound 3] | 32.14 uMO2/mgChlh | 0.83 | 0.273 ± 0.062 mm | 0.334 ± 0.082 mm | 2.31 ± 0.09 mm | 20.9 ± 1.01 h | 1 | 62.21 uMO2/mgChlh |  | 
2 | CCC(C)C1NC(=O)CC1=O (stereo not drawn) [Compound 1] | 50.89 uMO2/mgChlh | 0.82 | 0.223 ± 0.077 mm | 0.292 ± 0.041 mm | 1.97 ± 0.04 mm | 22.3 ± 0.77 h | 2 | 98.76 uMO2/mgChlh |  | 
3 | CCCC(Cl)C1NC(=O)CC1=O (stereo not drawn) [Compound 2] | 37.02 uMO2/mgChlh | 0.84 | 0.280 ± 0.030 mm | 0.362 ± 0.012 mm | 2.96 ± 0.01 mm | 22.0 ± 2.30 h | 2 | 69.41 uMO2/mgChlh |  | 
4 | CCCC1(CC)NC(=O)C(C(C)=O)=C1O (stereo not drawn) [Compound 27] | 53.24 uMO2/mgChlh | 0.81 |  |  |  |  |  | 91.45 uMO2/mgChlh | 14.2 ± 4.15 h | 3.18 ± 0.93 mm
5 | CCC(C)C1NC(=O)C(C(=O)Cc2ccccc2)=C1O (stereo not drawn) [Compound 51] | 32.15 uMO2/mgChlh | 0.81 |  |  |  |  |  | 52.23 uMO2/mgChlh | 15.1 ± 1.82 h | 3.28 ± 1.12 mm
6 | CCCCCCCCC1NC(=O)C(C(C)=O)=C1O (stereo not drawn) [Compound 18] | 39.98 uMO2/mgChlh | 0.80 |  |  |  |  |  | 67.27 uMO2/mgChlh | 12.00 ± 0.48 h | 8.27 ± 0.61 mm
7 | CC(=O)C1=C(O)C(CC(=O)O)NC1=O (stereo not drawn) [Compound 34] | 35.11 uMO2/mgChlh | 0.81 |  |  |  |  |  | 65.73 uMO2/mgChlh | 24.0 ± 0.02 h | 1 ± 0.86 mm
8 | CCC(C)C1NC(=O)C(CCc2ccccc2)=C1O (stereo not drawn) [Compound 6] | 27.11 uMO2/mgChlh | 0.81 |  |  | 2.12 ± 0.08 mm | 21.2 ± 3.85 h |  | 50.04 uMO2/mgChlh |  | 
9 | CCC1(CC)NC(=O)C(C(C)=O)=C1O [Compound 23] | 38.24 uMO2/mgChlh | 0.79 |  |  |  |  |  | 63.28 uMO2/mgChlh | 18.3 ± 2.17 h | 2.23 ± 0.12 mm
10 | CC(=O)C1=C(O)C(C(C)C)NC1=O (stereo not drawn) [Compound 39] | 33.79 uMO2/mgChlh | 0.80 |  |  |  |  |  | 62.72 uMO2/mgChlh | 16.5 ± 2.15 h | 4.89 ± 0.37 mm
11 | CC(=O)C1=C(O)C(C)NC1=O (stereo not drawn) [Compound 11] | 46.41 uMO2/mgChlh | 0.82 |  |  |  |  |  | 80.00 uMO2/mgChlh | 21.5 ± 0 h | 1.80 ± 0.41 mm
12 | CCCC1NC(=O)C(C(C)=O)=C1O (stereo not drawn) [Compound 13] | 41.35 uMO2/mgChlh | 0.85 |  |  |  |  |  | 78.19 uMO2/mgChlh | 16.70 ± 0.21 h | 5.21 ± 0.44 mm
13 | CC(=O)C1=C(O)C(CCC(C)C)NC1=O (stereo not drawn) [Compound 33] | 26.54 uMO2/mgChlh | 0.79 |  |  |  |  |  | 51.94 uMO2/mgChlh | 13.5 ± 0.75 h | 4.17 ± 1.15 mm
14 | CCCCC1(CC)NC(=O)C(C(C)=O)=C1O (stereo not drawn) [Compound 30] | 22.78 uMO2/mgChlh | 0.79 |  |  |  |  |  | 47.33 uMO2/mgChlh | 13.3 ± 2.00 h | 4.53 ± 1.03 mm
15 | CCC1=C(O)C(C(C)CC)NC1=O (stereo not drawn) [Compound 4] | 28.01 uMO2/mgChlh | 0.83 |  |  | 2.97 ± 0.01 mm | 18.5 ± 1.55 h |  | 51.13 uMO2/mgChlh |  | 
16 | CCC(C)C1NC(=O)C(C(=O)CCCl)=C1O (stereo not drawn) [Compound 43] | 47.80 uMO2/mgChlh | 0.83 |  |  |  |  |  | 63.35 uMO2/mgChlh | 20.1 ± 1.15 h | 2.30 ± 0.28 mm
17 | CCC(C)C1NC(=O)C(NCCCCl)=C1O (stereo not drawn) [Compound 8] | 24.65 uMO2/mgChlh | 0.79 |  |  | 2.53 ± 0.18 mm | 20.0 ± 1.51 h |  | 49.05 uMO2/mgChlh |  | 
18 | CCCC(C#N)C1NC(=O)C(C(C)=O)=C1O (stereo not drawn) [Compound 38] | 40.41 uMO2/mgChlh | 0.81 |  |  |  |  |  | 64.69 uMO2/mgChlh | 13.6 ± 0.50 h | 9.82 ± 0.02 mm
19 | CCC(=O)NC1=C(O)C(C(C)CC)NC1=O (stereo not drawn) [Compound 9] | 23.33 uMO2/mgChlh | 0.83 |  |  | 2.80 ± 0.33 mm | 21.9 ± 2.00 h |  | 50.12 uMO2/mgChlh |  | 
20 | CCC(C)C1NC(=O)C(C(=O)Cc2ccc([N+](=O)[O-])cc2)=C1O (stereo not drawn) [Compound 52] | 36.86 uMO2/mgChlh | 0.82 |  |  |  |  |  | 53.13 uMO2/mgChlh | 15.3 ± 1.72 h | 3.83 ± 1.03 mm
21 | CCC(C)C1NC(=O)C(C(=O)CCOc2ccccc2)=C1O (stereo not drawn) [Compound 47] | 49.01 uMO2/mgChlh | 0.82 |  |  |  |  |  | 67.99 uMO2/mgChlh | 21.2 ± 1.88 h | 2.12 ± 0.09 mm
22 | CC(=O)C1C(=O)NC(C)C1=O (stereo not drawn) [Compound 57] | 35.13 uMO2/mgChlh | 0.82 |  |  |  |  |  | 63.42 uMO2/mgChlh | 20.4 ± 0 h | 1.98 ± 0.51 mm
23 | CCCCCC(C#N)C1NC(=O)C(=C(C)O)C1=O (stereo not drawn) [Compound 54] | 31.98 uMO2/mgChlh | 0.81 |  |  |  |  |  | 43.65 uMO2/mgChlh | 11.30 ± 0.73 h | 8.211 ± 0.101 mm
24 | CC(=O)C1=C(O)C(Cc2ccccc2)NC1=O (stereo not drawn) [Compound 19] | 40.07 uMO2/mgChlh | 0.79 |  |  |  |  |  | 63.43 uMO2/mgChlh | 24 ± 4.00 h | 1.24 ± 0.10 mm

Source: patent US9468209B2, “Method for eradicating weeds with derivatives of 3-acetyl-5-sec-butyl-4-hydroxy-3-pyrrolin-2-one” (priority 2012, dated 2016)
